pEC50: −log10 of the molar value. The source made the active and inactive calls. The rule behind the calls is not given here.
Legend:
[1] = tested on: prostate cells, cell count (flow cytometry events), cytotoxicity; assay: cell killing in prostate cells – flow cytometry event count, cytotoxicity control for prostate cell differentiation activator project, dose response (AID 1200)
[2] = as above; conditions: prostate cells, cell count (flow cytometry events), cytotoxicity; at 30 µM (top of the series)

| SMILES | EC50 [1] | pEC50 [1] | cell count (% of control) [2] |
| --- | --- | --- | --- |
| COC(=O)c1cc(-c2ccccc2)sc1NC(=O)c1cc(C)on1 | 0.326 µM (inactive) |  |  |
| Cc1cc2c(=O)n(CC(=O)N3CCN(c4ccccc4)CC3)cnc2s1 | 0.0344 µM (inactive) |  |  |
| CCOc1ccc(-c2cc(C(=O)NCCCN3CCN(CC)CC3)c3ccccc3n2)cc1 | 11.1 µM (inactive) |  |  |
| CN1CCN(CCCNC(=O)c2cc3c(-c4ccc(Cl)cc4)nn(C)c3s2)CC1 |  | 5.37 |  |
| COc1ccccc1N1CCN(c2nc3ccccc3nc2C(C#N)C(=O)OC(C)C)CC1 (centres undefined) | 9.78 µM (inactive) |  |  |
| CN(C)c1ccc(CNC2CC(C)(C)NC(C)(C)C2)cc1 | > 30 µM (inactive) |  |  |
| O=C(NCCCN1CCN(c2cccc(Cl)c2)CC1)c1cccc(N2CCCC2=O)c1 |  | 4.95 |  |
| COc1ccc(-c2oc3ncn(CCN4CCOCC4)c(=N)c3c2-c2ccc(OC)cc2)cc1 |  | 5.49 |  |
| CCN1CCN(c2cc(C)c3cc(NC(=O)c4ccc(Br)o4)ccc3n2)CC1 |  | 5.40 |  |
| Cc1ccc2c(c1)-c1c(cnn1CC(=O)Nc1ccccc1N1CCN(C)CC1)CO2 |  | 5.01 |  |
| CC1CCCCN1CCNC(=O)c1cc2c(-c3ccccc3F)nn(C)c2s1 (centres undefined) |  | 5.07 |  |
| Cc1nc2ncnn2c(C)c1CCC(=O)NCCCN1CCN(c2cccc(Cl)c2)CC1 |  |  | 1150% (inactive) |
| CCN1CCCC1CNC(=O)c1cc2c(-c3ccc(Cl)cc3)nn(C)c2s1 (centres undefined) |  | 5.32 |  |
| CCOC(=O)c1c(C)n(C)c2ccc(OCC(O)CNC(CC)CO)cc12 (centres undefined) | 10.9 µM (inactive) |  |  |
| COc1ccc(-c2noc(CCC(=O)NCCCN3CCC(Cc4ccccc4)CC3)n2)cc1 |  |  | 276% (inactive) |
| CCN(CC)CCCNC(=O)c1cc2c(-c3ccc(Cl)cc3)nn(C)c2s1 |  | 5.58 |  |
| O=C(CCN1C(=O)COc2ccccc21)NCCCN1CCN(c2ccc(F)cc2)CC1 | > 30 µM (inactive) |  |  |
| Cn1c(C(=O)NCCCN2CCN(c3cccc(Cl)c3)CC2)cc2c(=O)n(C)c3ccccc3c21 |  | 5.28 |  |
| COc1ccc(N2CCN(CCCNC(=O)CC3Oc4ccc(C)cc4NC3=O)CC2)cc1 (centres undefined) | 3.54 µM (inactive) |  |  |
| Cc1ccccc1-c1nc(CN2CCC(C(=O)NCc3cccnc3)CC2)c(C)o1 |  | 5.70 |  |
| C[C@H]1CCC/C=C/C2C[C@H](O)CC2[C@H](O)/C=C/C(=O)O1 (some centres undefined) |  |  | 129% (inactive) |
| CCN(CCNC(=O)C1CCN(Cc2nc(-c3cccc(Cl)c3)oc2C)CC1)c1ccccc1 |  |  | 141% (inactive) |
| CN(CCNC(=O)C1CC(=O)N(c2ccc(F)c(Cl)c2)C1)Cc1ccccc1 (centres undefined) | 27.5 µM (inactive) |  |  |
| CCN1CCN(c2ncc(C(=O)Nc3cc(Cl)c(OC)cc3OC)c3ccccc23)CC1 |  | 5.53 |  |

| SMILES | EC50 [1] | pEC50 [1] | cell count (% of control) [2] |
| --- | --- | --- | --- |
| CCCS(=O)(=O)N1CCCC(C(=O)NCCCN2CCN(c3ccc(F)cc3)CC2)C1 (centres undefined) | 0.328 µM (inactive) |  |  |
| Cc1ccccc1CS(=O)(=O)CCC(=O)NCCCN1CCN(c2ccccc2F)CC1 |  |  | 854% (inactive) |
| CCN1CCN(CCNC(=O)C2CCN(Cc3nc(-c4ccc(Cl)cc4)oc3C)CC2)CC1 | 8.88 µM (inactive) |  |  |
| CCc1ccc(-c2nc(CN3CCC(C(=O)NCc4ccc(F)cc4)CC3)c(C)o2)cc1 |  | 5.74 |  |
| CCOC(=O)c1c(C)[nH]c(C(=O)COC(=O)C2CC2C)c1C (centres undefined) |  | 6.36 |  |
| Cc1ccc(CNc2nc3ccccc3n3nnnc23)cc1 |  |  | 348% (inactive) |
| Cc1ccc(OCC(O)Cn2c(=N)n(CCN3CCCCC3)c3ccccc32)cc1 (centres undefined) |  | 5.46 |  |
| COc1ccc(CCn2c(=N)c(C(=O)NCc3ccco3)cc3c(=O)n4ccccc4nc32)cc1 | 10.2 µM (inactive) |  |  |
| O=c1cc(-c2ccccc2)[nH]c2ccccc12 |  |  | 105% (inactive) |
| CC(C)(C)c1ccc(C(O)CCCN2CCC(C(O)(c3ccccc3)c3ccccc3)CC2)cc1 (centres undefined) | 0.00318 µM (inactive) |  |  |
| CCn1c(=N)n(CC(O)COc2cccc(C)c2)c2ccccc21 (centres undefined) |  |  | 266% (inactive) |
| CCOC(=O)c1[nH]c(C)c(C(=O)N2CCc3ccccc32)c1C |  | 6.86 |  |
| Cc1ccccc1-c1nc(CN2CCC(C(=O)NCCCN3CCCC3)CC2)c(C)o1 | 0.358 µM (inactive) |  |  |
| COc1ccc(-c2noc(-c3cc(Cl)ccc3Cl)n2)cc1OC |  |  | 347% (inactive) |
| CCCOc1ccccc1C1CC(=O)Nc2cc3c(cc21)OCO3 (centres undefined) | 0.373 µM (inactive) |  |  |
| Cn1c(=O)cc(OCC(=O)NCCCN2CCN(c3ccccc3F)CC2)c2ccccc21 | 14 µM (inactive) |  |  |
| O=C(NCCCN1CCN(c2ccc(F)cc2)CC1)c1cccc(N2CCCC2=O)c1 | 0.441 µM (inactive) |  |  |
| Cn1c(=O)[nH]c(=O)c2c1nc(Br)n2CCCSc1nc2ccccc2o1 |  |  | 227% (inactive) |
| COc1ccccc1N1CCN(Cc2cc(Br)c(O)c3ncccc23)CC1 |  | 5.96 |  |
| CCN(CCNC(=O)C1CCN(Cc2nc(-c3ccc(Cl)cc3)oc2C)CC1)c1ccccc1 |  |  | 22% (inactive) |
| Cn1nc(-c2ccc(Cl)cc2)c2cc(C(=O)NCCCN3CCCC3)sc21 |  | 5.38 |  |
| Cc1oc(-c2ccc(Cl)cc2)nc1CN1CCC(C(=O)N2CCN(Cc3ccccc3)CC2)CC1 |  | 5.48 |  |
| Cc1cc(N2CCN(C)CC2)nc2ccc(NC(=O)c3ccc(Br)o3)cc12 |  | 5.06 |  |
| O=C(Cn1cc2c(n1)CCCC2)NCCCN1CCN(c2ccccc2F)CC1 |  |  | 382% (inactive) |

| SMILES | EC50 [1] | pEC50 [1] | cell count (% of control) [2] |
| --- | --- | --- | --- |
| O=C(c1ccccc1)c1ccc(N2CCNCC2)cc1 | > 30 µM (inactive) |  |  |
| CCN(CC)CC(=O)Nc1ccc(-c2nc3cc(NC(=O)CN(CC)CC)ccc3o2)cc1 |  | 5.09 |  |
| COc1ccc(Nc2nc(N)nc(CN3CCC(Cc4ccccc4)CC3)n2)cc1 |  | 5.61 |  |
| CCOC(=O)c1ccccc1NC(=O)Cn1c(-c2nonc2N)nc2ccccc21 |  | 6.86 |  |
| Cn1c(=O)cc(SCC(=O)NCCCN2CCN(c3ccccc3F)CC2)c2ccccc21 |  | 5.93 |  |
| Cc1ccccc1-c1nc(CN2CCCC(C(=O)NCCCN3CCOCC3)C2)c(C)o1 (centres undefined) | 13.9 µM (inactive) |  |  |
| COc1ccc(Cc2nc(-c3ccc(-n4cccc4)cc3)no2)cc1OC | 3.01 µM (inactive) |  |  |
| COc1ccc(N2CCN(CCCNC(=O)CCCn3c(=O)[nH]c4ccsc4c3=O)CC2)cc1 |  |  | 330% (inactive) |
| Cc1ccc(Nc2cc(=O)n(C3CCCCC3)c(=O)[nH]2)cc1C |  |  | 196% (inactive) |
| Clc1ccc(COC(Cn2ccnc2)c2ccc(Cl)cc2Cl)cc1 (centres undefined) |  |  | 350% (inactive) |
| CCn1c(=O)cc(SCC(=O)NCCN2CCN(Cc3ccccc3)CC2)c2ccccc21 | 14.5 µM (inactive) |  |  |
| O=S1(=O)C=C(Sc2nc3ccccc3s2)c2ccccc21 |  | 6.02 |  |
| Nc1ccc(-n2ccnc2)cc1 | 1.04 µM (inactive) |  |  |
| Cc1ccccc1-c1nc(CN2CCC(C(=O)NCCCN3CC(C)CC(C)C3)CC2)c(C)o1 (centres undefined) |  | 5.68 |  |
| CN1CCN(c2cc3c(c4c2[nH]c2ccccc24)C(=O)CC(C)(C)C3)CC1 |  | 5.34 |  |
| Cn1nc(-c2ccc(Cl)cc2)c2cc(C(=O)NCCCN3CCOCC3)sc21 | 10.1 µM (inactive) |  |  |
| CCn1c(=O)cc(SCC(=O)NCCCN2CCN(c3ccccc3F)CC2)c2ccccc21 | 15.6 µM (inactive) |  |  |
| N=c1n(CCN2CCCCC2)c2ccccc2n1CC(O)COc1ccccc1 (centres undefined) |  |  | 311% (inactive) |
| CCCc1cc(-c2n[nH]c(C)c2-c2ccc(C(=O)OCC)o2)c(O)cc1O | 3.64 µM (inactive) |  |  |
| CCOc1cccc2cc(-c3cn4cc(C)ccc4n3)c(=O)oc12 |  |  | 44.8% (inactive) |
| CCN(CC)CCNC(=O)c1ccc(N2CCCCC2)c(NS(=O)(=O)c2ccc(C)cc2)c1 |  | 6.84 |  |
| Cc1ccccc1-c1nc(CN2CCC(C(=O)NCCCN3CCOCC3)CC2)c(C)o1 | 3.44 µM (inactive) |  |  |
| Cc1ccc(C)c(N2CCN(CCCNC(=O)Cn3cc4c(n3)CCCCC4)CC2)c1 |  | 4.96 |  |
| CCN(CC)CCNC(=O)c1cc2c(-c3ccc(Cl)cc3)nn(C)c2s1 |  | 5.41 |  |

| SMILES | EC50 [1] | pEC50 [1] | cell count (% of control) [2] |
| --- | --- | --- | --- |
| CN(CC(O)COc1ccc(OCC(O)CN(C)C2CCCCC2)cc1)C1CCCCC1 (centres undefined) |  | 6.37 |  |
| CCN1CCN(C(c2cccs2)C(C)NS(=O)(=O)c2ccc(Br)cc2)CC1 (centres undefined) | 10.1 µM (inactive) |  |  |
| Cc1cc(N2CCN(C)CC2)nc2ccc(NC(=O)c3ccc4c(c3)OCO4)cc12 |  |  | 102% (inactive) |
| Oc1c(CN2CCCCC2)cc(COCc2ccccc2)c2cccnc12 |  | 5.53 |  |
| Cc1ccc(Cl)cc1N1CCN(C(=O)c2cc3c(=O)n(C)c4ccccc4c3n2C)CC1 |  | 6.81 |  |
| COc1ccccc1NC(=O)c1nc[nH]c1C(=O)Nc1ccccc1OC |  |  | 546% (inactive) |
| COc1ccc(N2CCN(CCCNC(=O)c3cc4sccc4n3C)CC2)cc1 | 10.1 µM (inactive) |  |  |
| CCOc1ccccc1NC(=O)c1nc[nH]c1C(=O)Nc1ccccc1OCC | 3.26 µM (inactive) |  |  |
| CCCN(CCC)CCNC(=O)C1CCN(Cc2nc(-c3ccc(Cl)cc3)oc2C)CC1 |  | 5.19 |  |
| CCN1CCCC1CNC(=O)C1CCN(Cc2nc(-c3cccc(Br)c3)oc2C)CC1 (centres undefined) |  | 5.94 |  |
| COc1ccc(-c2cc(C(F)(F)F)nc(N3CCN(Cc4ccccc4)CC3)n2)cc1OC | 9.88 µM (inactive) |  |  |
| Cc1cc(C)nc(N2CCC(C(=O)Nc3ccc(Oc4ccccc4)cc3)CC2)n1 |  |  | 264% (inactive) |
| Cc1cccc(-c2nsc(SCC(=O)Nc3nccs3)n2)c1 | 3.45 µM (inactive) |  |  |
| CN(C)CCCN1c2ccccc2CCc2ccc(Cl)cc21 |  | 5.26 |  |
| CC1CCCCN1CCNC(=O)c1ccc2c(=O)n(CCc3ccccc3)c(=O)[nH]c2c1 (centres undefined) | 10.5 µM (inactive) |  |  |
| Cc1oc(-c2ccc(Cl)cc2)nc1CN1CCC(C(=O)NCCCN2CCOCC2)CC1 | 17.8 µM (inactive) |  |  |
| COc1ccc(CCN2CCC(Nc3nc4ccccc4n3Cc3ccc(F)cc3)CC2)cc1 | 7.83 µM (inactive) |  |  |
| CCOc1ccc(NC(=O)COc2nsnc2N2CCCCC2)cc1 |  |  | 226% (inactive) |
| COc1ccc2cc3cc(C(=O)Nc4ccccc4N4CCN(C)CC4)oc3nc2c1 |  | 5.69 |  |
| CC(C)N1CCC2(CC1)N=C(c1ccc3c(c1)OCO3)CC(c1cc(Cl)ccc1O)N2 (centres undefined) |  | 5.73 |  |
| COc1ccc(-c2ccc(-c3noc(-c4ccccc4)n3)c(OC)n2)cc1 | 3.16 µM (inactive) |  |  |
| COc1cc2nc(N3CCN(C(=O)C4COc5ccccc5O4)CC3)nc(N)c2cc1OC (centres undefined) | 9.6 µM (inactive) |  |  |

— PubChem BioAssay AID1200 (NMMLSC, 2008)
